What was measured:
[1] = system: AFAP-110 colocalization with cSrc and cSrc activation; assay: Immunofluorescence: PMA-induced colocalization of AFAP-110 with cSrc and cSrc activation in mouse embryo fibroblasts; type: cell-based
Protocol: FIG. 1: LY294002 blocks PMA-induced colocalization between AFAP-110 and cSrc, and subsequent cSrc activation. A) SYF cells transiently co-expressing GFP-AFAP-110 and cSrc were untreated (panels a-d), treated with 100 nM PMA for 15 minutes (panels e-h), or treated with PMA and either 6 μM bisindolylmaleimide (panels i-I), 10 μM LY294002 (panels m-p) or 50 nM Wortmannin (panels q-t). Fixed cells were immunolabeled with avian specific cSrc antibody, EC10 (1:500), and phospho-Src-family (Tyr416) (1:250) as described in the methods section. Secondary antibodies used were Atexa 546 anti-mouse for EC10 and Alexa 647 anti-rabbit for phospho-Src-family (Tyr416). A merged image was generated to determine colocalization between AFAP-110 and cSrc. Bars represent 20 μM.
D) Knockout MEFs (p85−/−) were transfected with GFP-AFAP-110 and cSrc. Fixed cells were immunolabeled with EC10 (1:500) and phospho-Src-family (Tyr416) (1:250) as described in the methods section. Secondary antibodies used were Alexa 546 anti-mouse for EC10 and Alexa 647 anti-rabbit for phospho-Src-family (Tyr416). Cells treated with 100 riM PMA for 15 minutes (panels e-h). Images were merged to determine colocalization of cSrc and GFP-AFAP-110. Bars represent 20 μm. Mouse embryo fibroblast cells that express the p85α isoform of the PI3K regulatory subunit (p85α+/+) were transfected with GFP-AFAP-110 and cSrc. Fixed cells were immunolabeled with EC10 (1:500) and phospho-Src-family (Tyr416) (1:250) as described in the methods section. Secondary antibodies used were Alexa 546 anti-mouse for EC10 and Alexa 647 anti-rabbit for phospho-Src-family (Tyr416). Images were merged to determine colocalization of cSrc and GFP-AFAP-110. Bars represent 20 μm.
(§1) SYF, SYF/cSrc, p85α+/+ and p85−/− cells were cultured in standard culture media. Transient transfections of SYF, SYF/cSrc, p85α+/+ cells for immunofluorescence were carried out using LipofectAMINE™ Reagent (Invitrogen) as per manufacturer's protocol. Briefly, Approximately 5.0-8.0×10^4 cells per well were transfected at 50-70% confluent on coverstips with 2-4 μg of plasmid DNA and incubated for 3-4 hours. Thirty-six hours after transfection, cells were serum starved for 12 hours, treated, and subsequently fixed and permeablized as previously described (Qian, Y. et. al., 1998). Cells were treated with a PKC activator, 100 nM PMA for 5 or 15 minutes or in combination with the following pretreatments; a PKC inhibitor, 6 μM bisindolylmaleimide [I] for six hours; or PI3K inhibitor, 10 μM LY294002 for six hours; 50 nM Wortmannin for 30 minutes; and/or a Src family inhibitor, 5 μM PP1 for six hours. For actin labeling, a 1:500 dilution of TRITC-phalloidin was used as labeled in the figures. Primary antibody concentrations used were diluted in 5% Bovine Serum Albumin (BSA) dissolved in 1× phosphate-buffered saline (PBS): EC10 mAb-1:500; Phospho-Src Family (Y416) pAb-1:250; Anti-PI-3,4,5-P3 mAb-1:100; Anti-AFAP-110 (F1)pAb-1:1000; Anti-cSrc pAb-1:500; Anti-flag-1:1000. All fluorescent secondary and phalloidin antibodies were diluted 1:200 in 5% BSA, and are labeled according to figure legends. Cells were washed and mounted on slides with Fluoromount-G (Fisher). A Zeiss LSM 510 confocal microscope was used to scan images of about 1 μM in thickness. To prevent cross-contamination between the different fluorochromes, each channel was imaged sequentially using the multitrack recording module before merging the images. For all figures, representative cells are shown (>100 cells examined per image shown).
We utilized SYF cell lines as a model system, mouse embryo fibroblasts engineered to contain null mutations in the c-src,fyn, and c-yes genes (Klinghoffer, R. A. et. al., 1999). The cells were transiently co-transfected with constructs that encode cSrc and GFP-tagged AFAP-110, as previously described (Gatesman, A. et. al., 2004). […]

cSrc = assay: Immunofluorescence: translocation of cSrc from the perinuclear region to the cell periphery; type: cell-based, mouse; details: 100 nM PMA
Protocol: FIG. 2: Inhibition of PI3K blocks translocation of cSrc from the perinuclear region of mouse embryo fibroblast in response to PMA treatment. SYF and p85−/− null cells were transiently transfected with cSrc and labeled for avian cSrc using EC10, an avian-specific monoclonal antibody (1:500). EC10 was visualized with anti-mouse Atexa Fluor 488 (false colored red for consistency). Cells treated with 100 nM PMA (panel b) induced translocation of cSrc to the cell periphery as indicated by the arrows. However, cells treated with 100 nM PMA in conjunction with 6 μM bisindolylmaleimide (panel c) or 10 μM LY (panel d) blocked the translocation of cSrc as indicated by the arrows. […] (n=nucleus) Bars represent 20 μM.
as §1, with “All fluorescent secondary and phalloidin antibodies were diluted 1:200 in 5% BSA, and are labeled according to figure legends. Cells were washed and mounted on slides with Fluoromount-G (Fisher). A Zeiss LSM 510 confocal microscope was used to scan images of about 1 μM in thickness. To prevent cross-contamination between the different fluorochromes, each channel was imaged sequentially using the multitrack recording module before merging the images. For all figures, representative cells are shown (>100 cells examined per image shown).” left out

PI3K = assay: Immunofluorescence of Ptdlns-3,4,5-P3 production in SYF/cSrc cells; type: cell-based, mouse; details: 100 nM PMA
Protocol: SYF/cSrc cells were serum-starved for 24 hours. Cells stimulated with 10% serum (panels c-f), 100 nM PMA for 5 (panels g-h), or 15 minutes (panels i-j); as well as treated with 100 nM PMA in combination with 6 μM bisindolylmaleimide [I] (panels k-I) or 50 nM wortmannin (panels m-n). Cells treated with 100 nM PMA in combination with 5 μM PP1 (panel o-p) and Ptdlns-3,4,5-P3 levels evaluated. Cells were immunolabeled with a PI-3,4,5-P3-specific antibody (Echelon, Inc.;1:100) and TRITC-phalloidin (1:500). Secondary antibody for anti-PI-3,4,5-P3 (1:100) was Alexa IgM 647 anti-mouse (1:200). Bars represent 20 μm.
as §1
Ptdlns-3,4,5-P3 production was measured using the anti-Ptdlns-3,4,5-P3 antibody (Echelon, inc.) for analysis by immunofluorescence and contrasted with stress filament integrity, measured using TRITC-phalloidin as previously described (Chen, R. et. al., 2002; Hama, H. et. al., 2004). SYF/cSrc cells were left untreated or treated with serum as controls for PI3K activation. […] In addition, SYF/cSrc cells were stimulated with PMA for 5 or 15 minutes.

[2] = p85−/− cells, 100 nM PMA 15 min

## CCCCCCCCCCCCCC(=O)O[C@@H]1[C@@H](C)[C@@]2(O)[C@@H](C=C(CO)C[C@]3(O)C(=O)C(C)=C[C@@H]23)[C@@H]2C(C)(C)[C@]12OC(C)=O [PMA, Phorbol 12-myristate 13-acetate]
[1]; SYF cells, 100 nM PMA 15 min
  activation of cSrc (anti-phospho-cSrc Y416 immunoreactivity) on PMA treatment: evidence for activation of cSrc
  colocalization of GFP-AFAP-110 with cSrc on PMA treatment: caused GFP-AFAP-110 to colocalize with cSrc
[1]; p85α+/+ cells
  cSrc activation on PMA treatment: enables PMA to induce
  colocalization of AFAP-110 with cSrc on PMA treatment: enables PMA to induce
[1]; [2]
  cSrc activation on PMA treatment: no evidence for cSrc activation
  colocalization of AFAP-110 with cSrc on PMA treatment: failed to induce significant colocalization
cSrc; SYF cells transfected with cSrc
  translocation of cSrc on PMA treatment: induced cSrc to translocate from the perinuclear region to the cell periphery
cSrc; p85−/− cells
  translocation of cSrc on PMA treatment: cSrc remained in the perinuclear region
PI3K; 5 minutes
  Ptdlns-3,4,5-P3 production: able to induce
PI3K; 15 minutes
  Ptdlns-3,4,5-P3 levels: consistently reduced

Reference: patent US20080234232A1, “Methods and compositions for targeting AFAP” (priority 2007, published 2008)
